According to ChEMBL document CHEMBL5236660, “Design, synthesis, and biological evaluation of quinoxalinone derivatives as potent BRD4 inhibitors” (Bioorg Med Chem, 2023):

What was measured:
MCF7 = test: Antiproliferative activity against human MCF7 cells assessed as reduction in cell viability incubated for 72 hrs by MTT assay; format: functional, cell-based; settings: MCF7, 72 h
HepG2 [1] = test: Inhibition of colony formation in human HepG2 cells at 10 uM incubated for 8 days with drug replacement every 2 days by crystal violet staining based imaging analysis; format: functional; settings: HepG2, 192 h, time 8 day
HepG2 [2] = test: Antimigratory activity against human HepG2 cells assessed as increase in E-cadherin expression at 0.625 to 2.5 uM incubated 24 hrs by Western blot analysis; format: functional, cell-based; settings: dose 0.625-2.5 µM
HepG2 [3] = test: Induction of cell cycle arrest in human HepG2 cells assessed as accumulation at G0/G1 phase at 1.25 uM incubated for 24 hrs by flow cytometry (Rvb= 46.5%); format: functional
HepG2 [4] = test: Induction of cell cycle arrest in human HepG2 cells assessed as accumulation at G2/M phase at 1.25 uM incubated for 24 hrs by flow cytometry (Rvb= 14.05%); format: functional
HepG2 [5] = test: Induction of cell cycle arrest in human HepG2 cells assessed as accumulation at G0/G1 phase at 2.5 uM incubated for 24 hrs by flow cytometry (Rvb= 46.5%); format: functional
HepG2 [6] = test: Induction of apoptosis in human HepG2 cells assessed as necrotic cells at 0.625 uM incubated for 24 hrs by Annexin-V/PI staining based flow cytometry (Rvb=0.85%); format: functional
HepG2 [7] = test: Induction of apoptosis in human HepG2 cells assessed as early apoptotic cells at 1.25 uM incubated for 24 hrs by Annexin-V/PI staining based flow cytometry (Rvb=4.48%); format: functional
HepG2 [8] = test: Induction of apoptosis in human HepG2 cells assessed as early apoptotic cells at 2.5 uM incubated for 24 hrs by Annexin-V/PI staining based flow cytometry (Rvb=4.48%); format: functional
HepG2 [9] = test: Induction of apoptosis in human HepG2 cells assessed as viable cells at 5 uM incubated for 24 hrs by Annexin-V/PI staining based flow cytometry (Rvb=94.0%); format: functional; settings: read-out: Activity
HepG2 [10] = test: Induction of apoptosis in human HepG2 cells assessed as total apoptotic cells at 1.25 uM incubated for 24 hrs by Annexin-V/PI staining based flow cytometry (Rvb=5.14%); format: functional

IC50 (MCF7): 22.1 µM
Compound: CC(=O)Nc1ccc(Oc2ccc(F)cc2F)c(-c2ccc3[nH]c(=O)c(C)nc3c2)c1
inhibition at 10 µM (HepG2 [1]): 80% | Activity (HepG2 [2]): Dose-Dependent Effect | Activity (HepG2 [3]): 51% | Activity (HepG2 [4]): 22.6% | Activity (HepG2 [5]): 53.3% | Activity (HepG2 [6]): 0.8% | Activity (HepG2 [7]): 6.32% | Activity (HepG2 [8]): 7.22% | viability at 5 µM (HepG2 [9]): 87.5% | Activity (HepG2 [10]): 7.66%
